{"source": "patent US10920236B2", "about": "“Use of micropeptides in order to stimulate mycorrhizal symbiosis” (UNIVERSITE TOULOUSE III—PAUL SABATIER, priority 2014, dated 2021)", "key": {"miR171b": {"tested_on": "miR171b", "test": "Accumulation of miR171b in M. truncatula roots (qRT-PCR)", "assay_type": "in vivo, Medicago truncatula", "procedure": "(§1) The surface of the seeds of M. truncatula was sterilized and they were placed to germinate on agar plates for 5 days at 4° C. in the dark. The young shoots were then grown on 12 cm square plates filled with Fahraeus medium without nitrogen and containing 7.5 μM phosphate (Lauresergues et al., Plant J., 72(3):512-22, 2012). The lateral roots were counted every day. In pots, the plants were watered every two days with modified Long Ashton medium containing little phosphorus (Balzergue et al., 2011 Journal of experimental botany, 62:1049-1060).\n(§2) The peptides were synthesized by Eurogentec or Smartox-Biotech. The miPEP171b was placed in suspension in a water 40%/acetonitrile 50%/acetic acid 10% (v/v/v) solution.\nThe RNA was extracted by using the reagent Tri-Reagent (MRC) according to the manufacturer's instructions, with the exception of precipitation of the RNA which was carried out with 3 volumes of ethanol. […]\n(§3) The mean values of the relative expression of the genes or of the production of lateral roots were analyzed by using the Student test or the Kruskal-Wallis test. […]\n(§4) The composite plants having roots transformed with Agrobacterium Rhizogenes were obtained by the method described in Boisson-Dernier et al. (Mol Plant-Microbe Interact, 18:1269-1276, 2005). The transformed roots were verified and selected by observations of DsRED with a binocular fluorescence magnifier. […]"}, "[1]": {"tested_on": "HAM1 (Accession No. MtGI9-TC114268)", "test": "Expression of the HAM1 gene in M. truncatula roots (qRT-PCR)", "assay_type": "in vivo, Medicago truncatula", "procedure": "as §1, §2\n(§5) The total RNA of the roots of M. truncatula was extracted by using the RNeasy Plant Mini Kit extraction kit (Qiagen). […]\nas §3, §4"}, "[2]": {"tested_on": "HAM2 (Accession No. MtGI9-TC120850)", "test": "Expression of the HAM2 gene in M. truncatula roots (qRT-PCR)", "assay_type": "in vivo, Medicago truncatula", "procedure": "as §1, §2, §5, §3, §4"}, "[3]": {"tested_on": "lateral roots of M. truncatula", "test": "Number of lateral roots in M. truncatula", "assay_type": "in vivo, Medicago truncatula", "procedure": "as §1, §2\nThe mean values of the relative expression of the genes or of the production of lateral roots were analyzed by using the Student test or the Kruskal-Wallis test. The error bars represent the standard error of the mean (SEM). The asterisks indicate a significant difference (p<0.05).\nThe DNA fragments of interest were amplified with Pfu polymerase (Promega). […]\nas §4"}, "[4]": {"tested_on": "colonization of M. truncatula by the fungus Rhizophagus irregularis", "test": "Mycorrhization of M. truncatula by Rhizophagus irregularis", "assay_type": "in vivo, Medicago truncatula", "procedure": "Medicago truncatula plants were treated for 5 weeks, by watering every 2 days, with low concentrations (0.1 μM) of a synthetic peptide the sequence of which is identical to that of miPEP171b, and the percentage colonization of the plant was measured.\nSterile spores of Rhizophagus irregularis (previously called Glomus intraradices) DAOM197198 were purchased from Agronutrition (Carbonne, France).\nSeeds of M. truncatula (Gaertn ‘Jemalong’ genotype A17) were sterilized on the surface and placed to germinate on agar plates in the dark for 5 days at 4° C. The plants were then grown on an Oil-Dri US-special substrate (Damolin, Denmark) for 5 to 12 weeks in a growing room and watered every 2 days with modified Long Ashton medium containing a low concentration of phosphate (Balzergue et al., J Exp Bot, 62(3):1049-60, 2011).\nFor the inoculation of the plants with R. irregularis, 450 spores were used per plant.\nAfter washing in KOH 10% (weight/volume) and rinsing in sterile water, the mycorrhized roots were treated for 30 minutes with wheat germ agglutinin fluorescein conjugate (Invitrogen) which fixes the fungal chitin, then washed 3 times in a PBS buffer. The roots were then observed with an inverted optical microscope or a confocal microscope (Leica, France).\nAlternatively, the roots were labelled with black Schaeffer ink according to the protocol described in Vierheilig et al., Appl Environ Microbiol, 64:5004-5007, 1998.\nThe percentage mycorrhization was measured using grids according to the protocol described in Giovannetti and Mosse, New Phytol, 84:489-500, 1980.\nThe accurate phenotyping of the mycorrhization was also carried out according to the method of Trouvelot et al., Physiological and Genetical Aspects of Mycorrhizae, pp 217-221, 1986. The frequency of mycorrhization (F) in the root system and the abundance of the arbuscules (A) (as a percentage) were calculated in colonized root sections using the software Mycocalc.\nThe size of the arbuscules was measured using the software ImageJ. […]"}, "[5]": {"tested_on": "mycorrhization of Oryza sativa by Rhizophagus irregularis", "test": "Mycorrhization of Oryza sativa (rice)", "assay_type": "in vivo", "settings": "0.1 μM, 5 weeks post inoculation; vs solvent control; FIGS. 13, 14, 15, 16 and 19", "procedure": "The effects of the osmiPEP171i on mycorrhization of the rice were analyzed by treating the plants with osmiPEP171i in parallel with the mycorrhization.\nThe seeds are sterilized for 1 min with 70% ethanol, then for 30 min with sodium hypochlorite solution before rinsing.\nCulturing of a previously germinated seed of rice is carried out in a pot containing vermiculite with cotton fibre at the bottom. 500 spores of Rhizophagus irregularis are added per pot. The spores in mixtures in a substrate are arranged in a layer on the vermiculite at approximately two thirds of the height of the pot. The remainder of the pot is then filled with vermiculite and a hole is made for placing a germinated rice seed therein. The substrate is moistened. The pots are then placed in a growing room at 25° C.\nTreatments of the Plants with miPEP: • OsmiPEP171i: 0.1 μM (final) • Control: equivalent of 50% ACN solution\nThe treatments are carried out on Monday and Friday by mixing the solution of miPEP or control in 60 ml of nutrient solution (1/2 Hoagland with 25 μM Pi and Sequestren) and on Wednesday the solution of miPEP or control in 60 ml of water. Each plant is watered with 10 ml per pot. […]"}, "[6]": {"tested_on": "mycorrhization of Solanum lycopersicum by Rhizophagus irregularis", "test": "Mycorrhization of Solanum lycopersicum (tomato)", "assay_type": "in vivo", "settings": "0.1 μM slmiPEP171e, watering every two days, 12 weeks post inoculation; vs solvent; FIGS. 8 and 17", "procedure": "The effects of slmiPEP171e on mycorrhization of the tomato were analyzed by treating the plants with slmiPEP171e in parallel with the mycorrhization.\nThe seeds are sterilized for 2 minutes in sodium hypochlorite solution diluted ¼, then rinsed at least 8 times with sterile water.\nThe seeds are placed in a Petri dish containing water+1% agar. The dishes are placed at 4° C. overnight, then they are placed at ambient temperature for 4 days in order to germinate the seeds.\nThe germinated seeds are transferred to an Oil-Dry® substrate containing spores of Rhizophagus irregularis at the concentration of 400 spores/L. After two days of adaptation under mini-greenhouse the seedlings are transferred to a growing room or greenhouse. The plants are watered regularly with a solution of Long Ashton+nitrogen (Lauressergues et al., Plant J. 72(3):512-22, 2012).\nThe treatment is carried out by watering the plants with 12.5 ml of water+the concentrated solution of miPEP or the equivalent of solvent solution (50% acetonitrile) for the control treatment. The treatments are carried out every two days.\nThe roots are cleared with 1% KOH 7 minutes at 90° C., then stained 10 minutes in an ink solution (5% Sheaffer ink; 5% acetic acid) at 90° C."}, "[7]": {"tested_on": "mycorrhization of Lotus japonicus by Rhizophagus irregularis", "test": "Mycorrhization of Lotus japonicus (birdsfoot trefoil)", "assay_type": "in vivo", "settings": "0.1 μM, 5 weeks post inoculation; vs control; FIGS. 9, 10, 11, 12 and 18", "procedure": "The effects of the LjmiPEP171b on mycorrhization of the birdsfoot trefoil were analyzed by treating the plants with LjmiPEP171b in parallel with the mycorrhization.\nThe seeds are sterilized in sodium hypochlorite solution for 20 min then rinsed several times in water.\nCulturing of the birdsfoot trefoil plants is carried out in a pot containing vermiculite with cotton fibre at the bottom. 5,000 spores of Rhizophagus irregularis are added per pot. The spores in mixtures in a substrate are arranged in a layer on the vermiculite to approximately two thirds of the height of the pot. The remainder of the pot is then filled with vermiculite and 10 seeds of pre-germinated birdsfoot trefoil are placed in the moist substrate. 3 pots are prepared for each treatment. The pots are then places in a growing room at 25° C.\nTreatments of the Plants with miPEP: • LjmiPEP171e: 0.1 μM (final) • Control: water.\nThe treatments are carried out on Monday and Friday by mixing the solution of miPEP or control with the nutrient solution (suitable B&D medium) and on Wednesday the solution of miPEP or control in water. Each pot is watered with 10 ml except on Friday 30 ml (without changing the quantity of miPEP), in order to last over the weekend. […]"}, "[8]": {"settings": "plant in which miPEP171b is overexpressed vs control plant, FIG. 2A"}, "[9]": {"settings": "synthetic peptide applied to roots, medium containing miPEP171b at 0.01 μM, 0.1 μM or 1 μM, vs control plant, FIG. 3A"}}, "data": [{"sequence": "MLLHRLSKFCKIERDIVYIS (listed as Medicago truncatula) [miPEP171b]", "values": [{"measurement": "accumulation of miR171b (relative expression)", "setting": "miR171b; [8]", "result": "increase"}, {"measurement": "accumulation of miR171b (relative expression)", "setting": "miR171b; [9]", "result": "increase"}, {"measurement": "expression of the HAM1 gene (relative expression)", "setting": "[1]; [8]", "result": "reduction"}, {"measurement": "expression of the HAM1 gene (relative expression)", "setting": "[1]; [9]", "result": "reduction"}, {"measurement": "expression of the HAM2 gene (relative expression)", "setting": "[2]; [8]", "result": "reduction"}, {"measurement": "expression of the HAM2 gene (relative expression)", "setting": "[2]; [9]", "result": "reduction"}, {"measurement": "average number of lateral roots", "setting": "[3]; medium containing miPEP171b at 0.1 μM for 5 days and 1 time per day, vs control plant, FIG. 3B", "result": "reduction"}, {"measurement": "average number of lateral roots", "setting": "[3]; plant in which miPEP171b is overexpressed vs control plant, FIG. 2B", "result": "reduction"}, {"measurement": "mycorrhization rate", "setting": "[4]; 0.1 μM miPEP171b, 5 weeks post inoculation, vs control plants, FIG. 7", "result": "greater"}, {"measurement": "mycorrhization (percentage colonization of the plant)", "setting": "[4]; 0.1 μM synthetic peptide, watering every 2 days for 5 weeks, vs solvent control, FIG. 5", "result": "significantly increased"}, {"measurement": "size (surface area) of the arbuscules", "setting": "[4]; roots treated with 0.1 μM miPEP171b vs control roots, FIG. 6", "result": "larger size"}]}, {"sequence": "MIARYIEREMTSKLGRGRKRAARLVAVFLLG (listed as Oryza sativa) [osmiPEP171i]", "values": [{"measurement": "mycorrhization of rice", "setting": "[5]", "result": "promotes"}]}, {"sequence": "MKLGNIEGTYFIICLGRYI (listed as Solanum lycopersicum) [slmiPEP171e]", "values": [{"measurement": "mycorrhization of the tomato", "setting": "[6]", "result": "promotes"}]}, {"sequence": "MYHRSKAKLCQTDGDDGGGSDM (listed as Lotus japonicus) [LjmiPEP171b]", "values": [{"measurement": "mycorrhization of birdsfoot trefoil", "setting": "[7]", "result": "promotes"}]}]}
